Consider 2 compounds from patent US20220257552A1, “METHODS OF PRESCREENING AND TREATING BREAST CANCERS WITH SELECTIVE ANDROGEN RECEPTOR MODULATORS” (priority 2021, published 2022).

One experiment deals with T1, ER-α (Rattus norvegicus, UniProt P06211).
T1 construct: expressed in transfected cells
Kind of experiment: ER-α transactivation in HEK-293 cells. It counts as cell-based. As for the experimental part:
(§1) Rat GR, MR, PR, ER-α and ER-β were individually cloned into a pCR3.1 vector backbone. Sequencing was performed to verify the absence of any mutations. HEK-293 cells were plated at 90,000 cells per well of a 24 well plate in Dulbecco's Minimal Essential Media supplemented with 5% charcoal-stripped FBS. […] Luciferase assays were performed 48 h after transfection. Transcriptional activation values are represented as firefly luciferase normalized to renilla luciferase.

The next experiment has as its target T2, GR (Rattus norvegicus, UniProt P06536).
T2 construct: expressed in transfected cells
Briefly: GR transactivation in HEK-293 cells. It counts as cell-based. Here is the method: as §1

The next experiment addresses T3, MR (Rattus norvegicus, UniProt P22199).
T3 construct: expressed in transfected cells
T3 sequence (P22199 1-981): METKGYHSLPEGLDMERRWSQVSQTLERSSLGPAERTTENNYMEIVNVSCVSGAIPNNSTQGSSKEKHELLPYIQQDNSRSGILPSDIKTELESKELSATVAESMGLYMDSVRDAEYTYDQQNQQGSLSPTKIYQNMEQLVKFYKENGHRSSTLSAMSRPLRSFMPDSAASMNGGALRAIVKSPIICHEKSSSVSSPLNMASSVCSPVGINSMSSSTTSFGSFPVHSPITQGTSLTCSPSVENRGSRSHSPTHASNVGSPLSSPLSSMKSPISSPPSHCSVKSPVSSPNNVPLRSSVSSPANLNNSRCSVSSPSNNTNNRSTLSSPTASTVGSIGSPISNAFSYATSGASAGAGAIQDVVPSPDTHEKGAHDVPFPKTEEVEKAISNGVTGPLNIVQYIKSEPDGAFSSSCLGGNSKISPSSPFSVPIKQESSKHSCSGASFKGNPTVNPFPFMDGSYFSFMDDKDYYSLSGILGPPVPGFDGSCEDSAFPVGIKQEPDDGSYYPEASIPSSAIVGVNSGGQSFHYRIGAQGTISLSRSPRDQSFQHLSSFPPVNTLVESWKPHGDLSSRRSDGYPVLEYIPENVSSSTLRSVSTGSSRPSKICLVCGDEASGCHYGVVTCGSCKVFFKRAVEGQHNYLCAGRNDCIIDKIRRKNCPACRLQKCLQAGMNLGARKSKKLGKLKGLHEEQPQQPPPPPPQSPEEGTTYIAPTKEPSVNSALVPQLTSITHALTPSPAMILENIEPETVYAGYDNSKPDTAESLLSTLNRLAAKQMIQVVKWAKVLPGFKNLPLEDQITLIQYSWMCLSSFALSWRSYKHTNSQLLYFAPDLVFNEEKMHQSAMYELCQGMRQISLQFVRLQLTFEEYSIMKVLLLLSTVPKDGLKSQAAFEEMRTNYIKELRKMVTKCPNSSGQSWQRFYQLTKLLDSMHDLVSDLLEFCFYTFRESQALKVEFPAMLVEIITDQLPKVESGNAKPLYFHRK
Kind of experiment: MR transactivation in HEK-293 cells. The experiment is classed as cell-based. Here is the method: as §1

For another experiment, the target named is AR-LBD (Homo sapiens, UniProt P10275). Kind of experiment: Competitive radioligand binding with [3H]MIB. Conditions: DHT = 1.0.
In the next experiment the test system is MDA-MB-231-AR tumors. Briefly: Affymetrix microarray of MDA-MB-231-AR tumors. It counts as in vivo, mice. Here is the method:
RNA was extracted from MDA-MB-231-AR tumors (n=5/group) treated with vehicle or compound of Formula VIII. RNA was pooled and Affymetrix microarray was performed to determine the change in expression of gene signature.
(§2) Microarray Analysis was performed on RNA from MDA-MB-231-AR and MCF-7-AR tumors in order to identify and compare changes in gene expression in ER-negative (MDA-MB-231-AR; triple negative) an ER-positive (MCF-7-AR; triple positive) breast cancer tumors treated with a compound of Formula VIII (30 mg/kg/day p.o. for 4 weeks). Affymetrix analysis of the xenografts was done on pooled samples of the xenografts. The analysis included ˜70,000 sequences with ˜30,000 genes and variations thereof represented, as well as microRNA's. RNA was isolated and expression of genes was evaluated using microarray (Affymetrix Human Gene ST 2.0 array). Expression of genes in compound of Formula VIII-treated samples was compared with the expression in vehicle-treated samples.

The next experiment has as its system MCF-7-AR tumors. Briefly: Affymetrix microarray of MCF-7-AR tumors. It counts as in vivo, mice. Particulars: Table 9. Here is the method: as §2
The next experiment has as its system BR-0001 TNBC. Kind of experiment: BR-0001 AR-positive TNBC xenograft in NSG mice. It counts as in vivo. Here is the method:
Xenograft experiment. NSG mice obtained from JAX labs were housed with five animals per cage and were allowed free access to tap water and commercial rat chow (Harlan Teklad 22/5 rodent diet—8640). During the course of the study, the animals were maintained on a 12 hr light:dark cycle. Animals were anesthetized and BR-0001 TNBC fragments of 1 mm^3 (approximately) were implanted subcutaneously in NSG mice. […] Tumor volume was measured thrice weekly. Tumor volume was calculated using the formula length×width×width×0.5236. Once tumors reached greater than 1500-2000 mm^3, animals were sacrificed and tumors weighted and stored for various analysis. Two regions of the same BR-0001 tumor, an AR-positive TNBC xenograft, were immunohistochemically stained with AR antibody (AR N20 from SCBT) (FIGS. 26A and 26B) and compared to an AR-negative (FIG. 26C) TNBC as a negative control. […] The tumor xenograft efficacy experimental results are provided in 27A-27C, with FIGS. 27A and 27B being replicate experiments.
Tumors from replicate experiment 2 (FIG. 27B) were fixed in formalin and paraffin embedded. Slides were cut and stained with Ki-67 antibody. Ki-67 positive cells (total 200 cells were counted in each slide) in each slide were counted and represented as % stained cells, as shown in FIG. 28B.

Each structure is given as a SMILES string.

T2 sequence (P06536 whole entry): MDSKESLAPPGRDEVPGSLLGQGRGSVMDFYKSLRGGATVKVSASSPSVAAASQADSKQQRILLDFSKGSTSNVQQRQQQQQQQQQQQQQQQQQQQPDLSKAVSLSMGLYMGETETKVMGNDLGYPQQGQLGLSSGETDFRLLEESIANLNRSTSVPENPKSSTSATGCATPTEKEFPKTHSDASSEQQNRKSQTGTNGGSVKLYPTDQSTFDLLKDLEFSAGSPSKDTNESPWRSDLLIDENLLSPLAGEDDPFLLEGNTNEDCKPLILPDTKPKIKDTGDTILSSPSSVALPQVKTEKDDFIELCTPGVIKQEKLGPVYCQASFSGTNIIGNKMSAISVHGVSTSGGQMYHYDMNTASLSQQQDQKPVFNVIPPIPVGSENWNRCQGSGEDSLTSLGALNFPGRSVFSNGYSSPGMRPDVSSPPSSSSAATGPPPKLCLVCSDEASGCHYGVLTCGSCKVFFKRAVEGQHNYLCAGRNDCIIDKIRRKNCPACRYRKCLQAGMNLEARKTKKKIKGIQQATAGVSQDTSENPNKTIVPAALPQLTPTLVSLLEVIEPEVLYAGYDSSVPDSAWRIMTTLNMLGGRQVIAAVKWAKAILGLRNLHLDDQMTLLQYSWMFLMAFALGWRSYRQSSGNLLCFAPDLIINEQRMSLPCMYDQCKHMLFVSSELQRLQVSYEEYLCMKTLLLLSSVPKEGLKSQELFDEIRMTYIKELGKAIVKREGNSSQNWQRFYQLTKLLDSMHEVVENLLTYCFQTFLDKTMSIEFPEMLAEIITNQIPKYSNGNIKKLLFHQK
T1 sequence (P06211 whole entry): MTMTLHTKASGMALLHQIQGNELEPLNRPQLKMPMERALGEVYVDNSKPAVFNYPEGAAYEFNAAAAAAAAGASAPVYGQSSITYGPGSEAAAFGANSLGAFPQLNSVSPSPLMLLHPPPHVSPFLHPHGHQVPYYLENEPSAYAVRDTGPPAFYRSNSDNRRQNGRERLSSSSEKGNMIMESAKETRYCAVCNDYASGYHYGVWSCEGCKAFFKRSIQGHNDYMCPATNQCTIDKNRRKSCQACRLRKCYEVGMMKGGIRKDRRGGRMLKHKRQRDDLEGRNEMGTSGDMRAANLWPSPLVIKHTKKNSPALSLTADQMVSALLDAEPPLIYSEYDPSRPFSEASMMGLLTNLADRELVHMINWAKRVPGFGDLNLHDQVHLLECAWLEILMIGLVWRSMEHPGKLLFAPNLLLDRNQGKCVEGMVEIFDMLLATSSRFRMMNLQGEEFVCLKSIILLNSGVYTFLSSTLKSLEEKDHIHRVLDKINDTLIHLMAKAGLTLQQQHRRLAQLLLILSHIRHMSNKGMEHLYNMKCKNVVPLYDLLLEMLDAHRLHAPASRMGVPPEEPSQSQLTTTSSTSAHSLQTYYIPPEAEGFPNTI
Chain of AR-LBD (P10275 669-900 limits assumed): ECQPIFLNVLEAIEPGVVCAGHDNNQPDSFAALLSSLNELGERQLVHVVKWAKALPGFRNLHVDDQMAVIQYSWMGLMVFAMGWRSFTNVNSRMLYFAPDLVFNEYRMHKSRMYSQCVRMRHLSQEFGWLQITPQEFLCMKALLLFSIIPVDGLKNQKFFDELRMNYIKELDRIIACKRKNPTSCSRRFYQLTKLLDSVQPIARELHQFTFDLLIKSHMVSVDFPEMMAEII

In the case of `C[C@](O)(COc1ccc(C#N)cc1)C(=O)Nc1ccc(C#N)c(Cl)c1` [Formula VIII, (S)—N-(3-chloro-4-cyanophenyl)-3-(4-cyanophenoxy)-2-hydroxy-2-methylpropanamide], the “17β-estradiol-induced ER-α activity, antagonist mode” value at ER-α (co-incubation) is “failed to alter”. At ER-α (highest tested concentration 1 μM), the “ERα-mediated transactivation, agonist mode” value is given as “failed to activate”. Moreover, at GR (all tested concentrations), the “GR-mediated transactivation, agonist mode” value is “did not induce”. Further, the “dexamethasone-induced GR-mediated transactivation, antagonist mode” value on GR (co-incubation) is listed as “failed to alter”. Moreover, the “MR-mediated transactivation, agonist mode” value on MR (all tested concentrations) is reported as “did not induce”. Further, the “aldosterone-induced MR-mediated transactivation, antagonist mode” value at MR (co-incubation) is “failed to alter”. Moreover, the “relative binding affinities (RBAs) for AR” value at AR-LBD stood at 0.314. In the experiment on MDA-MB-231-AR tumors (Table 8), the Aurora kinase expression entry is “Decreased”, the “BUB1 S/T kinase expression” value was “Decreased”, the CENPE expression result is “Decreased” and the EHMT2 expression entry is listed as “Decreased”. Besides, in the experiment on MDA-MB-231-AR tumors (Table 8), the ERCC1 expression result is “Decreased”, the IGFBP3 expression result is listed as “Decreased”, the ITGA2 expression result is listed as “Decreased” and the NQO1 expression entry is listed as “Increased”. In the experiment with MDA-MB-231-AR tumors (Table 8), the PARP1 expression entry was “Decreased”, the POLD1 expression entry was “Decreased”, the PTPRJ expression entry was “Increased” and the β-Adrenoceptor2 expression result is “Decreased”. Further, in the experiment with MDA-MB-231-AR tumors (Table 10), the FKBP51 induction entry was “∞”, the IRS2 induction is reported as 4.40 Fold, the MUC1 induction is reported as 9 Fold and the PTGS2 induction was 14 Fold. The SNAI2/SLUG induction in the experiment on MDA-MB-231-AR tumors (Table 10) is recorded as 2.10 Fold. For the same compound, the “genes Up” value with MDA-MB-231-AR tumors (more than 2 fold vs vehicle) is recorded as 720. Also, in the experiment on MCF-7-AR tumors, the AHR expression result was “Increased”, the CDT1 expression entry was “Decreased”, the Catalase expression result is “Increased” and the EHMT1 expression result is recorded as “Increased”. In addition, in the experiment on MCF-7-AR tumors, the ER-α expression entry is reported as “Decreased”, the ERCC2 expression result was “Decreased”, the FACGD2 expression result was “Decreased” and the IRS1 expression result was “Decreased”. Moreover, in the experiment on MCF-7-AR tumors, the KLK3 expression result is recorded as “Increased”, the MTR expression entry is “Decreased”, the NPAS2 expression result was “Increased” and the PON2 expression entry was “Increased”. For the same compound, in the experiment with MCF-7-AR tumors, the PR expression entry is listed as “Decreased”, the TIMP3 expression entry was “Increased” and the XRCC1 expression entry is given as “Decreased”.

In the case of `C[C@](O)(COc1ccc(C#N)cc1)C(=O)Nc1ccc(C#N)c(C(F)(F)F)c1` [Formula IX, (S)—N-(4-Cyano-3-(trifluoromethyl)phenyl)-3-(4-cyanophenoxy)-2-hydroxy-2-methylpropanamide], the tumor growth result in the experiment with BR-0001 TNBC (10 mg/kg/day Formula IX or enzalutamide orally) is “some tumor growth inhibition”. This compound also returned a tumor weight reduction in the experiment with BR-0001 TNBC (experiment 2) of approximately 40%.
